Laboratory results: ChEMBL document CHEMBL5143746, “SJPYT-195: A Designed Nuclear Receptor Degrader That Functions as a Molecular Glue Degrader of GSPT1” (ACS Med Chem Lett, 2022)
Values belong to the compound of their own block, whether it stands above or below them. Active and inactive are the calls of the source. The calls are words filed in the database; no cut-off is given here.

What was measured:
[1] = target: Protein cereblon/DNA damage-binding protein 1 (Homo sapiens, UniProt Q96SW2); assay: Displacement of BODIPY FL thalidomide from 6His-tagged CRBN/DDB1 (unknown origin) expressed in baculovirus infected Sf9 insect cells incubated for 1 min under shaking condition followed by 60 mins incubation under dark condition by TR-FRET assay
Sequence of Protein cereblon/DNA damage-binding protein 1 (Q96SW2 whole entry, the tested form may be a part): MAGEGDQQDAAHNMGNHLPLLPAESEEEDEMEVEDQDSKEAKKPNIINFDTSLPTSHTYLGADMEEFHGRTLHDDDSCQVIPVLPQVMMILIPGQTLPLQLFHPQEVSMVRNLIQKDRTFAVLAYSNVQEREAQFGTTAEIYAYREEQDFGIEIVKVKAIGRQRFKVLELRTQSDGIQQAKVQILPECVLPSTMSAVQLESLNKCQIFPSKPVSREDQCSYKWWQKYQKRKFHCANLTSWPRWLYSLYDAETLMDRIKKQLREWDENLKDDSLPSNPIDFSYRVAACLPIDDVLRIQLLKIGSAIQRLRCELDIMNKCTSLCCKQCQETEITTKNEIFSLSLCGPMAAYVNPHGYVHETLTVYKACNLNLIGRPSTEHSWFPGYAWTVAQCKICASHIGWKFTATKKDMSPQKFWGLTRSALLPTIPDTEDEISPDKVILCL
Sequence of Protein cereblon/DNA damage-binding protein 1 (Q16531 whole entry, further chain, the tested form may be a part): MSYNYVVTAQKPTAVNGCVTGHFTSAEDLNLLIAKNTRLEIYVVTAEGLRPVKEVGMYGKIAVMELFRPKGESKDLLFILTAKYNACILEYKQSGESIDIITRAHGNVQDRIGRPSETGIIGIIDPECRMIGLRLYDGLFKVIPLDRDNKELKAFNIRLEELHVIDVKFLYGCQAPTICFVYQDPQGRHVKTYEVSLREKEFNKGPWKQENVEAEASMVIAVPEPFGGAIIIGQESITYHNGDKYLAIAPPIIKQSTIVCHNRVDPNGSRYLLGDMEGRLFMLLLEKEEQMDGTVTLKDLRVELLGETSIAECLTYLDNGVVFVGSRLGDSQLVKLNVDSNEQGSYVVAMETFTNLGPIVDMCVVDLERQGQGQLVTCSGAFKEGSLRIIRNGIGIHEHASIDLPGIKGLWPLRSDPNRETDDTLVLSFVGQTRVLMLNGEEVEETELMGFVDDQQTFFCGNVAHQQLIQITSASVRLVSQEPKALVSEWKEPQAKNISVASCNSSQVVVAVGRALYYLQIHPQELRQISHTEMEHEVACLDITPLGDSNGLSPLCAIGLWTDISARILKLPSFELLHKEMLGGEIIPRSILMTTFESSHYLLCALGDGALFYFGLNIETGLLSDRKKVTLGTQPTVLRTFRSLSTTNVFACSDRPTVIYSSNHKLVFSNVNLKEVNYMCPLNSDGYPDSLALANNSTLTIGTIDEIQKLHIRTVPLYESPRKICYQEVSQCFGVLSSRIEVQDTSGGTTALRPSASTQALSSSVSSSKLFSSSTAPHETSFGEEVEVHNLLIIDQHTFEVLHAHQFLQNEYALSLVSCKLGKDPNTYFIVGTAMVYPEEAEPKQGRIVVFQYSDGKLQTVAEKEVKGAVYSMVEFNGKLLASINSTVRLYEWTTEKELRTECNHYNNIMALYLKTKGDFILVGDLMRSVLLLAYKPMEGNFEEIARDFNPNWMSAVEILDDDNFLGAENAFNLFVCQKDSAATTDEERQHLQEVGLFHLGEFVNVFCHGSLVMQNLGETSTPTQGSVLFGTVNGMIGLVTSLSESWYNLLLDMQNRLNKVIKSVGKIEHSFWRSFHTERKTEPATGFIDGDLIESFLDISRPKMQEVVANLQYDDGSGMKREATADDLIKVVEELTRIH

[2] = target: T1, Protein cereblon/Peptidyl-prolyl cis-trans isomerase FKBP1A/Nuclear receptor subfamily 1 group I member 2 (Homo sapiens, UniProt P62942+O75469+Q96SW2, F37V); assay: (§1) Molecular glue activity at HA-tagged […]/2HA-tagged PXR fused HiBiT-tagged FKBP12 (F36V) mutant (unknown origin) expressed in HepG2 cells assessed as induction of PXR degradation by measuring change in FKBP-PXR expression at 0.001 uM measured after 24 hrs by Western blot analysis relative to control; format: cell-based; details: hepg2, 24 h
T1 sequence (P62942 2-108 F37V limits assumed, stated change not applied, one chain of several): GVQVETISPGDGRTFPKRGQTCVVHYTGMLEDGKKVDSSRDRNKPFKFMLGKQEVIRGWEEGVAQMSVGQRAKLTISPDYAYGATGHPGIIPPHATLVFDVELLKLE
T1 sequence (Q96SW2 whole entry, stated change not applied, one chain of several, the tested form may be a part): as the sequence (Q96SW2 whole entry, the tested form may be a part) above

HepG2 [3] = assay: Binding affinity to 2HA-tagged PXR fused HiBiT-tagged FKBP12 (F36V) mutant (unknown origin) expressed in HepG2 cells assessed as change in FKBP-PXR expression at 0.0001 uM measured after 24 hrs by Western blot analysis relative to control; format: cell-based; details: Homo sapiens
HepG2 [4] = assay: Binding affinity to 2HA-tagged PXR fused HiBiT-tagged FKBP12 (F36V) mutant (unknown origin) expressed in HepG2 cells assessed as change in FKBP-PXR expression at 10 uM measured after 24 hrs by Western blot analysis relative to control; format: cell-based; details: Homo sapiens
[5] = target: T1, Protein cereblon/Peptidyl-prolyl cis-trans isomerase FKBP1A/Nuclear receptor subfamily 1 group I member 2; assay: as §1, with “CRBN” for “FKBP-PXR”; format: cell-based; details: hepg2, 24 h
HepG2 [6] = assay: Binding affinity to 2HA-tagged PXR fused HiBiT-tagged FKBP12 (F36V) mutant (unknown origin) expressed in HepG2 cells assessed as change in FKBP-PXR expression at 0.1 uM measured after 24 hrs by Western blot analysis relative to control; format: cell-based; details: Homo sapiens
[7] = target: T1, Protein cereblon/Peptidyl-prolyl cis-trans isomerase FKBP1A/Nuclear receptor subfamily 1 group I member 2; assay: (§2) Molecular glue activity at HA-tagged […]/2HA-tagged PXR fused HiBiT-tagged FKBP12 (F36V) mutant (unknown origin) expressed in HepG2 cells assessed as induction of PXR degradation by measuring change in CRBN expression at 1 uM measured after 24 hrs by Western blot analysis relative to control; format: cell-based; details: hepg2, 24 h
[8] = target: T1, Protein cereblon/Peptidyl-prolyl cis-trans isomerase FKBP1A/Nuclear receptor subfamily 1 group I member 2; assay: Molecular glue activity at HA-tagged CLR4-CRBN/2HA-tagged PXR fused HiBiT-tagged FKBP12 (F36V) mutant (unknown origin) expressed in HepG2 cells assessed as induction of PXR degradation measured after 24 hrs by Nano-Glo HiBiT assay; format: cell-based; details: hepg2, 24 h
[9] = target: T1, Protein cereblon/Peptidyl-prolyl cis-trans isomerase FKBP1A/Nuclear receptor subfamily 1 group I member 2; assay: as §1, with “0.01” for “0.001”; format: cell-based; details: hepg2, 24 h
[10] = target: T1, Protein cereblon/Peptidyl-prolyl cis-trans isomerase FKBP1A/Nuclear receptor subfamily 1 group I member 2; assay: as §1, with “0.0001” for “0.001”; format: cell-based; details: hepg2, 24 h
[11] = target: T1, Protein cereblon/Peptidyl-prolyl cis-trans isomerase FKBP1A/Nuclear receptor subfamily 1 group I member 2; assay: as §1, with “10” for “0.001”; format: cell-based; details: hepg2, 24 h
[12] = target: T1, Protein cereblon/Peptidyl-prolyl cis-trans isomerase FKBP1A/Nuclear receptor subfamily 1 group I member 2; assay: Molecular glue activity at HA-tagged […]/2HA-tagged PXR fused HiBiT-tagged FKBP12 (F36V) mutant (unknown origin) expressed in HepG2 cells assessed as induction of PXR degradation by measuring change in CRBN expression at 10 uM measured after 24 hrs by Western blot analysis relative to control; format: cell-based; details: hepg2, 24 h
HepG2 [13] = assay: Binding affinity to 2HA-tagged PXR fused HiBiT-tagged FKBP12 (F36V) mutant (unknown origin) expressed in HepG2 cells assessed as change in FKBP-PXR expression at 1 uM measured after 24 hrs by Western blot analysis relative to control; format: cell-based; details: Homo sapiens
[14] = target: T1, Protein cereblon/Peptidyl-prolyl cis-trans isomerase FKBP1A/Nuclear receptor subfamily 1 group I member 2; assay: as §2, with “at 0.01” for “at 1”; format: cell-based; details: hepg2, 24 h
[15] = target: T1, Protein cereblon/Peptidyl-prolyl cis-trans isomerase FKBP1A/Nuclear receptor subfamily 1 group I member 2; assay: as §2, with “at 0.0001” for “at 1”; format: cell-based; details: hepg2, 24 h
HepG2 [16] = assay: Binding affinity to 2HA-tagged PXR fused HiBiT-tagged FKBP12 (F36V) mutant (unknown origin) expressed in HepG2 cells assessed as change in FKBP-PXR expression at 0.001 uM measured after 24 hrs by Western blot analysis relative to control; format: cell-based; details: Homo sapiens
[17] = target: T1, Protein cereblon/Peptidyl-prolyl cis-trans isomerase FKBP1A/Nuclear receptor subfamily 1 group I member 2; assay: as §1, with “0.1” for “0.001”; format: cell-based; details: hepg2, 24 h
HepG2 [18] = assay: Binding affinity to 2HA-tagged PXR fused HiBiT-tagged FKBP12 (F36V) mutant (unknown origin) expressed in HepG2 cells assessed as change in FKBP-PXR expression at 0.01 uM measured after 24 hrs by Western blot analysis relative to control; format: cell-based; details: Homo sapiens
[19] = target: T1, Protein cereblon/Peptidyl-prolyl cis-trans isomerase FKBP1A/Nuclear receptor subfamily 1 group I member 2; assay: as §1, with “1” for “0.001”; format: cell-based; details: hepg2, 24 h
[20] = target: T1, Protein cereblon/Peptidyl-prolyl cis-trans isomerase FKBP1A/Nuclear receptor subfamily 1 group I member 2; assay: Molecular glue activity at HA-tagged […]/2HA-tagged PXR fused HiBiT-tagged FKBP12 (F36V) mutant (unknown origin) expressed in HepG2 cells assessed as induction of PXR degradation by measuring change in CRBN expression at 0.1 uM measured after 24 hrs by Western blot analysis relative to control; format: cell-based; details: hepg2, 24 h
[21] = target: T2, Nuclear receptor subfamily 1 group I member 2 (Homo sapiens, UniProt O75469); assay: Induction of PXR degradation in PXR knock in human SNU-C4 cells at 0.0001 to 1 uM measured after 24 hrs by Western blot analysis; format: cell-based; details: snu-c4, 24 h, dose 0.0001-1 µM
T2 sequence (O75469 whole entry): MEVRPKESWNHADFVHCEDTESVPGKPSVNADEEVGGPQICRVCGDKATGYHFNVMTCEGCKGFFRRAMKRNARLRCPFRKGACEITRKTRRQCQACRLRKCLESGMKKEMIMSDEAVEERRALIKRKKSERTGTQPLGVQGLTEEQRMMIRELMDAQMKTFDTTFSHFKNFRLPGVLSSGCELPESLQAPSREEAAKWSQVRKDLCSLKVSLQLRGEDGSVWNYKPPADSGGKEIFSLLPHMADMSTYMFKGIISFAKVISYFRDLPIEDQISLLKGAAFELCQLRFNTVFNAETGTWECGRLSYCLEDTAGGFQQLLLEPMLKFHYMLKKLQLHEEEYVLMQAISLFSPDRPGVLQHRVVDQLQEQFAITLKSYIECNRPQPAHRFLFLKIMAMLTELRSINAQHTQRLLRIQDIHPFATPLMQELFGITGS

SNU-C4 [22] = assay: Cytotoxicity against PXR knock in human SNU-C4 cells measured after 72 hrs by celltiter-glo assay; format: functional
[23] = target: Eukaryotic peptide chain release factor GTP-binding subunit ERF3A (Homo sapiens) (UniProt P15170); assay: Induction of GSPT1 degradation in PXR knock in human SNU-C4 cells at 0.001 to 10 uM measured after 24 hrs by Western blot analysis; format: cell-based; details: dose 0.001-10 µM
Sequence of Eukaryotic peptide chain release factor GTP-binding subunit ERF3A (Homo sapiens) (P15170 whole entry): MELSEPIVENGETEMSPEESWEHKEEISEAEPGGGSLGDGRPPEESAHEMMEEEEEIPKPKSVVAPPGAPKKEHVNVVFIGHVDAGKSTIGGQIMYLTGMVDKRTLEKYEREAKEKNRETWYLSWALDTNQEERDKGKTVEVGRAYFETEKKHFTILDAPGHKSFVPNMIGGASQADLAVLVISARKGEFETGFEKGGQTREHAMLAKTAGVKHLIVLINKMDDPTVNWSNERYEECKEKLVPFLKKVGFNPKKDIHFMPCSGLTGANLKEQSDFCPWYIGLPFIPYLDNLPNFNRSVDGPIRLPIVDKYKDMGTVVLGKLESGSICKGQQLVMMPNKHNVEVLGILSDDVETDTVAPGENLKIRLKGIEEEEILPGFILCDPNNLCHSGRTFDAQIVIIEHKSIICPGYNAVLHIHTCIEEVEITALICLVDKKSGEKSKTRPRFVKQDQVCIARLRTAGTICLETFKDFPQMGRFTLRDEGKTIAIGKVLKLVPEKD

SNU-C4 [24] = assay: […] of GSPT1 expression in PXR knock in human SNU-C4 cells at 5 uM measured after 12 hrs by TMT-MS analysis; format: functional, cell-based
SNU-C4 [25] = assay: Up regulation of BRIP1 expression in PXR knock in human SNU-C4 cells at 5 uM measured after 12 hrs by TMT-MS analysis; format: functional, cell-based
SNU-C4 [26] = assay: Down regulation of FOS expression in PXR knock in human SNU-C4 cells at 5 uM measured after 12 hrs by TMT-MS analysis; format: functional, cell-based
SNU-C4 [27] = assay: Down regulation of PXR mRNA expression in PXR knock in human SNU-C4 cells at 10 uM measured after 2 to 48 hrs by RT-qPCR analysis; format: functional, cell-based; details: time 2-48 hrs
SNU-C4 [28] = assay: […] of ZFP91 expression in PXR knock in human SNU-C4 cells at 5 uM measured after 12 hrs by TMT-MS analysis; format: functional, cell-based
[29] = target: T2, Nuclear receptor subfamily 1 group I member 2; assay: Induction of PXR degradation in PXR knock in human SNU-C4 cells at 5 uM measured after 12 hrs by Western blot analysis relative to control; format: cell-based; details: snu-c4, 12 h
[30] = target: T2, Nuclear receptor subfamily 1 group I member 2; assay: Induction of PXR degradation in PXR knock in human SNU-C4 cells at 10 uM measured after 2 to 48 hrs by Western blot analysis; format: cell-based; details: snu-c4, 10 µM, time 2-48 hrs
SNU-C4 [31] = assay: Up regulation of CYP1A1 expression in PXR knock in human SNU-C4 cells at 5 uM measured after 12 hrs by TMT-MS analysis; format: functional, cell-based
SNU-C4 [32] = assay: […] of GSPT2 expression in PXR knock in human SNU-C4 cells at 5 uM measured after 12 hrs by TMT-MS analysis; format: functional, cell-based

SMILES: CC(C)(C)c1cc(N)cc(Oc2cccc3c2C(=O)N(C2CCC(=O)NC2=O)C3=O)c1 (centres undefined)
- EC50 [1]: 14 nM

- fold change (FC) [2]: 0.7
- fold change (FC) [5]: 0.9
- fold change (FC) [7]: 2.2
- Activity [8]: Active
- fold change (FC) [9]: 0.5
- fold change (FC) [10]: 0.8
- fold change (FC) [11]: 1.4
- fold change (FC) [12]: 3.6
- fold change (FC) [14]: 1.1
- fold change (FC) [15]: 0.9
- fold change (FC) [17]: 0.5
- fold change (FC) [19]: 0.8
- fold change (FC) [20]: 1.3
SMILES: CC[C@H](C(=O)N1CCCC[C@H]1C(=O)O[C@H](CCc1ccc(OC)c(OC)c1)c1ccccc1OCC(=O)NCCCCCCOc1cccc2c1C(=O)N(C1CCC(=O)NC1=O)C2=O)c1cc(OC)c(OC)c(OC)c1 (some centres undefined)
- fold change (FC) (HepG2 [3]): 1.1
- fold change (FC) (HepG2 [4]): 1
- fold change (FC) (HepG2 [6]): 1.1
- fold change (FC) (HepG2 [13]): 0.9
- fold change (FC) (HepG2 [16]): 1.3
- fold change (FC) (HepG2 [18]): 1.2

- Activity [21]: Active
SMILES: Cc1ccc(NC(=O)NCc2ccc3c(c2)CN(C2CCC(=O)NC2=O)C3=O)cc1Cl (centres undefined)
- CC50 (SNU-C4 [22]): 440 nM

SMILES: CC(=O)Nc1cc(Oc2cccc3c2C(=O)N(C2CCC(=O)NC2=O)C3=O)cc(C(C)(C)C)c1 (centres undefined)
- EC50 [1]: 11 nM

SMILES: COc1ccc(OC)c(-n2nnc(C(=O)Nc3cc(NC(=O)CNc4cccc5c4C(=O)N(C4CCC(=O)NC4=O)C5=O)cc(C(C)(C)C)c3)c2C)c1 (centres undefined)
- EC50 [1]: 15 nM

- Activity [23]: Active
- Activity ([8]; DDE = dose-dependent effect): Dde
- Activity [29]: 50%
- Activity [30]: Active
SMILES: COc1ccc(OC)c(-n2nnc(C(=O)Nc3cc(Oc4cccc5c4C(=O)N(C4CCC(=O)NC4=O)C5=O)cc(C(C)(C)C)c3)c2C)c1 (centres undefined)
- Activity (SNU-C4 [24]): Active
- Activity (SNU-C4 [25]): Active
- Activity (SNU-C4 [26]): Active
- Activity (SNU-C4 [27]): Active
- Activity (SNU-C4 [28]): Active
- EC50 [1]: 31 nM
- CC50 (SNU-C4 [22]): 3.3 nM
- Activity (SNU-C4 [31]): Active
- Activity (SNU-C4 [32]): Active

SMILES: COc1ccc(OC)c(-n2nnc(C(=O)Nc3cc(OCCNc4cccc5c4C(=O)N(C4CCC(=O)NC4=O)C5=O)cc(C(C)(C)C)c3)c2C)c1 (centres undefined)
- EC50 [1]: 23 nM

SMILES: CC(=O)Nc1cc(Nc2cccc3c2C(=O)N(C2CCC(=O)NC2=O)C3=O)cc(C(C)(C)C)c1 (centres undefined)
- EC50 [1]: 3.2 nM

SMILES: COc1ccc(OC)c(-n2nnc(C(=O)Nc3cc(NCCNc4cccc5c4C(=O)N(C4CCC(=O)NC4=O)C5=O)cc(C(C)(C)C)c3)c2C)c1 (centres undefined)
- EC50 [1]: 24 nM

SMILES: COc1ccc(OC)c(-n2nnc(C(=O)Nc3cc(NC(=O)Nc4cccc5c4C(=O)N(C4CCC(=O)NC4=O)C5=O)cc(C(C)(C)C)c3)c2C)c1 (centres undefined)
- EC50 [1]: 410 nM

SMILES: COc1ccc(OC)c(-n2nnc(S(=O)(=O)c3ccc(C(C)(C)C)cc3)c2C)c1
- EC50 [1]: > 3000 nM

SMILES: COc1ccc(OC)c(-n2nnc(C(=O)Nc3cc(OC(=O)CNc4cccc5c4C(=O)N(C4CCC(=O)NC4=O)C5=O)cc(C(C)(C)C)c3)c2C)c1 (centres undefined)
- EC50 [1]: 17 nM

SMILES: COc1ccc(OC)c(-n2nnc(C(=O)Nc3cc(OCC(=O)Nc4cccc5c4C(=O)N(C4CCC(=O)NC4=O)C5=O)cc(C(C)(C)C)c3)c2C)c1 (centres undefined)
- EC50 [1]: > 333 nM
